{
  "source": "patent US12297295B2",
  "about": "“Peptide for treating cancer” (Saint Leo University, priority 2019, dated 2025)",
  "key": {"[1]": {"tested_on": "Hs 766T pancreatic cancer cells", "procedure": "(§1) IC50 values were calculated from obtained equations that describe cell viability as a function of peptide concentration."}, "[2]": {"tested_on": "HCT-116 colorectal cancer cells", "procedure": "The effect of peptide 7MM of viability of colorectal cancer cells was studied. HCT-116 colorectal cancer cells (ATCC #CCL-247) were transfected with 1.25-10 μM peptide 7MM for 3.5 hrs, incubated in a complete media for a duration of two doubling times, and assessed for viability by using a CCK-8 colorimetric assay (Dojindo Molecular Technologies, Inc.).\nas §1"}, "CMG helicase": {"target": "T1, CMG helicase (Xenopus laevis, UniProt Q91876)", "T1 construct": "from tissue; host or cells: S phase arrested Xenopus egg extracts (endogenous proteins on chromatin)", "experiment": "S phase arrested Xenopus egg extracts, chromatin RPA Western blot as readout for DNA helicase activity", "assay_type": "biochemical", "details": "250 μM peptide, 90 min incubation", "experimental": "The peptide of SEQ ID NO: 1 was synthesized using solid-phase synthesis. The product was purified using HPLC to a purity of about 99%. 250 μM of peptide Ex7 ([…]) (SEQ ID NO: 8), peptide 7N (circularized—KGEVLQMEDDLV) (SEQ ID NO: 9), peptide 7M (ISFQLMLCVLDYF) (SEQ ID NO: 1), or peptide 7C (IKLSPPMLLKEPYK) (SEQ ID NO: 10) were incubated in S phase arrested Xenopus egg extracts. Following a 90 min incubation, chromatin was isolated and probed by Western blotting for RPA protein as a readout for DNA helicase activity. Additionally, peptide 7MN (ISFQLML) (SEQ ID NO: 5), peptide 7MM (QLMLCVL) (SEQ ID NO: 2), and peptide 7MC (LCVLDYF) (SEQ ID NO: 6) were tested.\n250 μM of each of peptides 7α (DLVISFQLMLCVLDYFIK) (SEQ ID NO: 14), 7α-ln (LVISFQLMLCVLDYFIK) (SEQ ID NO: 22), 7α-2n (VISFQLMLCVLDYFIK) (SEQ ID NO: 23), 7α-3n (ISFQLMLCVLDYFIK) (SEQ ID NO: 24), 7α-4n (SFQLMLCVLDYFIK) (SEQ ID NO: 25), 7α-5n (FQLMLCVLDYFIK) (SEQ ID NO: 26), 7α-6n (QLMLCVLDYFIK) (SEQ ID NO: 27), 7α-7n (LMLCVLDYFIK) (SEQ ID NO: 28), 7α-17c (DLVISFQLMLCVLDYF) (SEQ ID NO: 29), 7α-16c (DLVISFQLMLCVLDY) (SEQ ID NO: 30), 7α-15c (DVISFQLMLCVLD) (SEQ ID NO: 31), 7α-14c (DVISFQLMLCVL) (SEQ ID NO: 32), 7α-11c (DVISFQLML) (SEQ ID NO: 33) was incubated in S phase arrested Xenopus egg extracts. Following a 90 min incubation, chromatin was isolated and probed by Western blotting for RPA protein as a readout for DNA helicase activity."}, "[3]": {"tested_on": "M059J glioma cancer cells", "procedure": "Pierce Protein Transfection reagent (Thermo Scientific, 89850) was used to deliver peptide to the cultured cells.\nM059J glioma cancer cells (ATCC #CRL-2366) were transfected with 1.25-10 μM peptide 7α for 3.5 hrs, incubated in a complete media for a duration of two doubling times, and assessed for viability by using a CCK-8 colorimetric assay (Dojindo Molecular Technologies, Inc.).\nM059J glioma cancer cells (ATCC #CRL-2366) were transfected with 1.25-10 μM peptide 7MM for 3.5 hrs, incubated in a complete media for a duration of two doubling times, and assessed for viability by using a CCK-8 colorimetric assay (Dojindo Molecular Technologies, Inc.).\nas §1"}, "[4]": {"tested_on": "DU145 prostate cancer cells", "procedure": "DU145 prostate cancer cells (ATCC #HTB-81) were transfected with 1.25-10 μM peptide 7α for 3.5 hrs, incubated in a complete media for a duration of two doubling times, and assessed for viability by using a CCK-8 colorimetric assay (Dojindo Molecular Technologies, Inc.).\nDU145 prostate cancer cells (ATCC #HTB-81) were transfected with 1.25-10 μM peptide 7MM for 3.5 hrs, incubated in a complete media for a duration of two doubling times, and assessed for viability by using a CCK-8 colorimetric assay (Dojindo Molecular Technologies, Inc.).\nas §1"}, "[5]": {"tested_on": "HMEC primary mammary epithelial normal cells", "procedure": "HMEC mammary epithelial cells (ATCC #PCS-600-010) were transfected with 1.25-20 μM peptide 7α for 3.5 hrs, incubated in a complete media for a duration of two doubling times, and assessed for viability by using a CCK-8 colorimetric assay (Dojindo Molecular Technologies, Inc.).\nHMEC primary normal epithelial breast cells (ATCC #PCS-600-010) were transfected with 1.25-10 μM peptide 7MM for 3.5 hrs, incubated in a complete media for a duration of two doubling times, and assessed for viability by using a CCK-8 colorimetric assay (Dojindo Molecular Technologies, Inc.).\nas §1"}, "[6]": {"tested_on": "PC3 prostate cancer cells", "procedure": "The effect of peptide 7α of viability of prostate cancer cells was studied. PC3 prostate cancer cells (ATCC #CRL-1435) were transfected with 1.25-10 μM peptide 7α for 3.5 hrs, incubated in a complete media for a duration of two doubling times, and assessed for viability by using a CCK-8 colorimetric assay (Dojindo Molecular Technologies, Inc.).\nThe effect of peptide 7MM of viability of prostate cancer cells was studied. PC3 prostate cancer cells (ATCC #CRL-1435) were transfected with 1.25-10 μM peptide 7MM for 3.5 hrs, incubated in a complete media for a duration of two doubling times, and assessed for viability by using a CCK-8 colorimetric assay (Dojindo Molecular Technologies, Inc.).\nas §1"}, "[7]": {"tested_on": "hTERT-HPNE immortalized normal pancreatic cells", "procedure": "as §1"}, "[8]": {"tested_on": "PANC-1 pancreatic cancer cells", "procedure": "The effect of Peptides 7M and 7MM on PANC-1 pancreatic cancer cells (ATCC #CRL-1469) was studied. Pierce Protein Transfection reagent (Thermo Scientific, 89850) was used to deliver peptide to the cultured cells. PANC-1 pancreatic cancer cells were transfected with 0.625-10 μM Peptide 7M or Peptide 7MM for 3.5 hrs, incubated in a complete media for a duration of two doubling times (48 hours), and assessed for viability by using a CCK-8 colorimetric assay.\nThe effect of peptide 7α of viability of pancreatic cancer cells was studied. PANC-1 pancreatic cancer cells (ATCC #CRL-1469) were transfected with 1.25-10 μM peptide 7α for 3.5 hrs, incubated in a complete media for a duration of two doubling times, and assessed for viability by using a CCK-8 colorimetric assay (Dojindo Molecular Technologies, Inc.).\nas §1"}, "[9]": {"tested_on": "HT1080 fibrosarcoma cancer cells", "procedure": "as §1"}, "[10]": {"tested_on": "U-2 OS osteosarcoma cancer cells", "procedure": "as §1"}, "[11]": {"tested_on": "SVG p12 immortalized astroglia cells", "procedure": "as §1"}, "[12]": {"tested_on": "HLF normal primary lung fibroblasts", "procedure": "The effect of peptide 7α of viability of HLF normal primary lung fibroblasts was studied. HLF normal primary lung fibroblasts (ATCC #PCS-201-013) were transfected with 1.25-10 μM peptide 7α for 3.5 hrs, incubated in a complete media for a duration of two doubling times, and assessed for viability by using a CCK-8 colorimetric assay (Dojindo Molecular Technologies, Inc.).\nThe effect of peptide 7MM of viability of normal lung cells was studied. HLF normal primary lung fibroblasts (ATCC #PC S-201-013) were transfected with 1.25-10 μM peptide 7MM for 3.5 hrs, incubated in a complete media for a duration of two doubling times, and assessed for viability by using a CCK-8 colorimetric assay (Dojindo Molecular Technologies, Inc.).\nas §1"}, "[13]": {"tested_on": "BT-549 breast cancer cells", "procedure": "The effect of Peptides 7M and 7MM on BT-549 breast cancer cells (ATCC #HTB-122) was studied. Pierce Protein Transfection reagent (Thermo Scientific, 89850) was used to deliver peptide to the cultured cells. BT-549 breast cancer cells were transfected with 0.625-20 μM Peptide 7M or 1.25-10 μM Peptide 7MM for 3.5 hrs, incubated in a complete media for a duration of two doubling times (96 hours), and assessed for viability by using a CCK-8 colorimetric assay.\nas §1"}, "[14]": {"tested_on": "THLE-3 immortalized normal liver cells", "procedure": "as §1"}, "[15]": {"details": "transfected 1.25-10 μM for 3.5 hrs, two doubling times, CCK-8"}, "[16]": {"details": "transfected 1.25-20 μM for 3.5 hrs, two doubling times, CCK-8"}},
  "note": "Where no end group is shown, it is not given here.",
  "data": [
    {"sequence": "DLVISFQLMLCVLDYFIK [7α, DLVISFQLMLCVLDYFIK]", "values": [
      {"measurement": "IC50", "setting": "[1]", "value": 7.4, "unit": "µM"},
      {"measurement": "effect on viability of Hs 766T pancreatic cancer cells", "setting": "[1]; [15]", "value": "decreases viability"},
      {"measurement": "IC50", "setting": "[2]", "value": 9.5, "unit": "µM"},
      {"measurement": "effect on viability of HCT-116 colorectal cancer cells", "setting": "[2]; [15]", "value": "decreases viability"},
      {"measurement": "inhibition of CMG helicase in vitro (chromatin RPA Western blot)", "setting": "CMG helicase", "value": "inhibit CMG helicase in vitro"},
      {"measurement": "IC50", "setting": "[3]; 48 h", "value": 7.1, "unit": "µM"},
      {"measurement": "effect on viability of M059J glioma cells", "setting": "[3]; [15]", "value": "decreases viability"},
      {"measurement": "IC50", "setting": "[4]", "value": 10.3, "unit": "µM"},
      {"measurement": "effect on viability of DU145 prostate cancer cells", "setting": "[4]; [15]", "value": "decreases viability"},
      {"measurement": "IC50", "setting": "HepG2 liver cancer cells; 96 h", "value": 3.7, "unit": "µM"},
      {"measurement": "effect on viability of HepG2 liver cancer cells", "setting": "HepG2 liver cancer cells; transfected 1.25-5 μM for 3.5 hrs, two doubling times, CCK-8", "value": "decreases viability"},
      {"measurement": "IC50", "setting": "H596 lung cancer cells", "value": 7.5, "unit": "µM"},
      {"measurement": "effect on viability of H596 lung cancer cells", "setting": "H596 lung cancer cells; [15]", "value": "decreases viability"},
      {"measurement": "IC50", "setting": "A549 lung cancer cells", "value": 16.5, "unit": "µM"},
      {"measurement": "effect on viability of A549 lung cancer cells", "setting": "A549 lung cancer cells; [15]", "value": "decreases viability"},
      {"measurement": "IC50", "setting": "[5]", "value": 115, "unit": "µM"},
      {"measurement": "effect on viability of HMEC normal mammary epithelial cells", "setting": "[5]; [16]", "value": "does not affect viability"},
      {"measurement": "IC50", "setting": "[6]", "value": 9.6, "unit": "µM"},
      {"measurement": "effect on viability of PC3 prostate cancer cells", "setting": "[6]; [15]", "value": "decreases viability"},
      {"measurement": "IC50", "setting": "[7]", "value": 366, "unit": "µM"},
      {"measurement": "effect on viability of hTERT-HPNE normal pancreatic cells", "setting": "[7]; [15]", "value": "does not affect viability"},
      {"measurement": "IC50", "setting": "[8]; 48 h", "value": 6.4, "unit": "µM"},
      {"measurement": "effect on viability of PANC-1 pancreatic cancer cells", "setting": "[8]; [15]", "value": "decreases viability"},
      {"measurement": "IC50", "setting": "[9]", "value": 4.4, "unit": "µM"},
      {"measurement": "effect on viability of HT1080 fibrosarcoma cancer cells", "setting": "[9]; [15]", "value": "decreases viability"},
      {"measurement": "IC50", "setting": "[10]", "value": 14.5, "unit": "µM"},
      {"measurement": "effect on viability of U-2 OS osteosarcoma cancer cells", "setting": "[10]; [15]", "value": "decreases viability"},
      {"measurement": "IC50", "setting": "[11]", "value": 113, "unit": "µM"},
      {"measurement": "effect on viability of SVG p12 normal brain cells", "setting": "[11]; [16]", "value": "does not affect viability"},
      {"measurement": "IC50", "setting": "[12]", "value": 225, "unit": "µM"},
      {"measurement": "effect on viability of HLF normal primary lung fibroblasts", "setting": "[12]; [15]", "value": "does not affect viability"},
      {"measurement": "IC50", "setting": "[13]; 96 h", "value": 4.6, "unit": "µM"},
      {"measurement": "effect on viability of BT-549 breast cancer cells", "setting": "[13]; [15]", "value": "decreases viability"},
      {"measurement": "IC50", "setting": "[14]", "value": 119, "unit": "µM"},
      {"measurement": "effect on viability of THLE-3 normal liver cells", "setting": "[14]; [15]", "value": "does not affect viability"}
    ]}
  ]
}
